In US20220288156A1, “TREATMENT” (QUEEN MARY UNIVERSITY OF LONDON, priority 2019, published 2022):

How the values were obtained:
Myh7 = Myh7 transcript expression by RT-qPCR, whole heart preparations; format: in vivo, mouse; settings: FIG. 10: whole heart, AAC surgery, ldCil 3 weeks after surgery, normalised to Gapdh
Excerpt: Male C57BL6 mice (Charles River) underwent AAC surgery at 4-5 weeks of age (between 20 and 22 g). Mice were anaesthetised with isoflurane, placed in a supine position on the procedure table, and an incision made along the ventral underbelly, extending from the xiphoid process of the sternum, down to the groin to reveal the abdominal muscle. The abdominal muscle was then cut the same distance along the linea alba to allow easy reattachment of the two halves. The two sides of the abdominal muscles were clipped back to reveal the abdominal gastrointestinal organs, and these were carefully manoeuvred to expose the underlying abdominal aorta. The aorta was cleaned of visceral fats, and carefully separated from parallel vasculature, whilst avoiding any spinal nerves. […] Hearts were halved longitudinally and either snap frozen in liquid nitrogen (for immunohistochemistry) or stored in an RNA later stabilisation solution (for RT-quantitative PCR) (ThermoFisher Scientific, Hertfordshire, UK). […]
Complementary DNA (cDNA) synthesis was carried out using the Applied Biosystems High Capacity cDNA Reverse Transcription (RT) Kit on a thermal cycler as per the manufacturer's instructions. cDNA was made up to a total quantity of either 600 (most mouse tissue and/or cells), or 1000 ng (human heart tissue). […]

[1] = tested on: mouse cardiac endothelial cells; assay: RNA-Seq of cardiac endothelial cells treated with ldCil; format: cell-based
Procedure: Primary mouse endothelial cells were isolated from the whole hearts of C57/BL6 3-7 day old mice. Hearts were removed, mechanically minced with scissors, and digested in pre-heated (37° C.) 10 ml 0.1% collagenase type I solution (Gibco Invitrogen) for 1 h. Usually 3 hearts were minced together for a single prep. The collagenase reaction was stopped by adding equal parts mouse lung endothelial cell (MLEC) media, and the digested tissue was homogenised in a dish by syringing up to 30 times with a 19 and 21-gauge needle, and then passed through a 70 μm pore-size cell strainer. Cells were centrifuged at 1500 rpm for 3 min, pellet was suspended and then incubated in a solution containing magnetic beads conjugated to a CD31 antibody (BD Pharmingen) to separate primary cardiac endothelial cells from the total cell population. Sorted cells were plated in T25 flasks coated with 0.1% gelatin, 10 μ/ml fibronectin and 30 μ/ml bovine collagen, suspended in mouse lung endothelial cell culture (MLEC) media and incubated at 37° C., 5% CO2. Cells were washed 3 or 4 times in PBS the next day to remove excess red blood cells and other cell-debris and growing medium applied. […]
RNA-Seq was performed by Barts and the London Genome Centre on the Illumina NextSeq 500 platform, generating on average ˜15-17 million paired-end reads of 76 bp in length per sample. After quality check using FastQC, raw reads were mapped to the mouse genome (mm10, Genome Reference Consortium GRCm38) in the strand-specific mode using HISAT2 (65). Number of uniquely aligned reads (q>10) to the exonic region of each gene were counted using HTSeq (66) based on the GenCode annotation version M16 (Ensembl v91). Only genes that achieved at least one read count per million reads (cpm) in at least four samples (i.e., number of samples per group) were kept. Conditional quantile normalisation (cqn) was then performed accounting for gene length and GC content, and a log2 transformed reads per kilobase of transcript per million mapped reads RPKM expression matrix was subsequently generated. […]

SMILES: CC(C)[C@H]1C(=O)N[C@@H](CCCN=C(N)N)C(=O)NCC(=O)N[C@@H](CC(=O)O)C(=O)N[C@H](Cc2ccccc2)C(=O)N1C [Cilengitide, c(f*VRGD)]
- Myh7 levels (Myh7): restored Myh7 levels back to untreated levels
- concordantly differentially expressed genes ([1]; 24 h and 48 h ldCil treatment vs control): 54 genes
- expression of proangiogenic or cardioprotective regulators (Csf2rb, Eln, Nov, CCL7, Mt2, Socs2, Fgf23, Slc30a1, Col6a3, Mt1, Ggt5, Adam8) ([1]; both 24 h and 48 h): differentially upregulated
- gene sets involved in mitosis, DNA repair and cell cycle (enrichment analysis) ([1]; both timepoints): significant increases
